Patent US9821173B2, “Anti-cancer agents and methods of use” (Case Western Reserve University, priority 2013, dated 2017)

Experiments:
[1] = biological target: rat liver TrxR (Rattus norvegicus, UniProt O89049); experiment: Thioredoxin reductase inhibition (DTNB assay); details: 40 μM compound, 600 nM TrxR, 25° C.
[2] = biological target: T1, ITK (Homo sapiens, UniProt Q08881); experiment: Kinase inhibition screening (Luceome); format: biochemical; details: 10 μM
T1 construct: purchased Luceome Biotechnologies (Tucson, Ariz.)

[3] = biological target: T2, FYN (Homo sapiens, UniProt P06241); experiment: Kinase inhibition screening (Luceome); format: biochemical; details: 10 μM
T2 construct: purchased Luceome Biotechnologies (Tucson, Ariz.)

[4] = biological target: T3, FLT3 (Homo sapiens, UniProt P36888); experiment: Kinase inhibition screening (Luceome); format: biochemical; details: 10 μM
T3 construct: purchased Luceome Biotechnologies (Tucson, Ariz.)

[5] = biological target: T4, IGF1R (Homo sapiens, UniProt P08069); experiment: Kinase inhibition screening (Luceome); format: biochemical; details: 10 μM
T4 construct: purchased Luceome Biotechnologies (Tucson, Ariz.)

[6] = biological target: T5, LYN (Homo sapiens, UniProt P07948); experiment: Kinase inhibition screening (Luceome); format: biochemical; details: 10 μM
T5 construct: purchased Luceome Biotechnologies (Tucson, Ariz.)
T5 sequence (P07948 whole entry): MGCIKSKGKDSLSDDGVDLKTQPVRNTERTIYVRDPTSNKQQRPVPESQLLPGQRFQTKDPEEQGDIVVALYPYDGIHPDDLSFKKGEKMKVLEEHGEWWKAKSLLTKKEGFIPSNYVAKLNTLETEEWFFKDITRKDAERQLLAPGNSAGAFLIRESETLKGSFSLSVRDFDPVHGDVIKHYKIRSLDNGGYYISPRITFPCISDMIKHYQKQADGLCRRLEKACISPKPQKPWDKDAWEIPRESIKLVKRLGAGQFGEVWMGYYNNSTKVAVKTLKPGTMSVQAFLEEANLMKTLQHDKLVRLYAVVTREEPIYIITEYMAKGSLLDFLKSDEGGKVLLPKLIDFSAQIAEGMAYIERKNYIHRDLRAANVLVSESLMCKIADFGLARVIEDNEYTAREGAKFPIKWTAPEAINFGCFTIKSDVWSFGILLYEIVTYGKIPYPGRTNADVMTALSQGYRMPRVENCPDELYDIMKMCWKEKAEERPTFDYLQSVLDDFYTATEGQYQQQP

T3 sequence (P36888 27-993): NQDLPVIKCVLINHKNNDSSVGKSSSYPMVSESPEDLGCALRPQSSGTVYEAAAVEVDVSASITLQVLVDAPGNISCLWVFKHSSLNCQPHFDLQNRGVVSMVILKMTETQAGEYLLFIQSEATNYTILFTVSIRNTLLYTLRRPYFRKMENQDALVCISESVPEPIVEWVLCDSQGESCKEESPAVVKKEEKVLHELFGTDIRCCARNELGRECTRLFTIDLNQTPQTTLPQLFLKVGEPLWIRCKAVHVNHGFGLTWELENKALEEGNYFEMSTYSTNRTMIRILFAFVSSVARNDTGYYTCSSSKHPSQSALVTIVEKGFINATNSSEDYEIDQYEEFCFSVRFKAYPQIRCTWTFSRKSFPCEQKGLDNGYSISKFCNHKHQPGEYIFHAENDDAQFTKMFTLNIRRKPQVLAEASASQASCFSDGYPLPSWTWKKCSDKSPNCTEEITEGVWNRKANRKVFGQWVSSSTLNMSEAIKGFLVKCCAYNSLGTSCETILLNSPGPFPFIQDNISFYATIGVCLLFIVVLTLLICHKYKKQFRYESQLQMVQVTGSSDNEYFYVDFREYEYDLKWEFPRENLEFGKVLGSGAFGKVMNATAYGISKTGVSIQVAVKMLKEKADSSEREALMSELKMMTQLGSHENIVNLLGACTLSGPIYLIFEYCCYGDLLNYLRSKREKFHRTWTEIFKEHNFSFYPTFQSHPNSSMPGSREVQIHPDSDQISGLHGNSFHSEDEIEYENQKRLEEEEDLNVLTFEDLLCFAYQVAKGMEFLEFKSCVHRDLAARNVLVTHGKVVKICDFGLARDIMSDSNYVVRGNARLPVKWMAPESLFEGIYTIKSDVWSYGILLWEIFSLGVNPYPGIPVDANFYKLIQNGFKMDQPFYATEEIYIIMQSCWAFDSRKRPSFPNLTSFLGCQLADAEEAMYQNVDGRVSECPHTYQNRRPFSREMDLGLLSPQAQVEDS
Chain of rat liver TrxR (O89049 whole entry): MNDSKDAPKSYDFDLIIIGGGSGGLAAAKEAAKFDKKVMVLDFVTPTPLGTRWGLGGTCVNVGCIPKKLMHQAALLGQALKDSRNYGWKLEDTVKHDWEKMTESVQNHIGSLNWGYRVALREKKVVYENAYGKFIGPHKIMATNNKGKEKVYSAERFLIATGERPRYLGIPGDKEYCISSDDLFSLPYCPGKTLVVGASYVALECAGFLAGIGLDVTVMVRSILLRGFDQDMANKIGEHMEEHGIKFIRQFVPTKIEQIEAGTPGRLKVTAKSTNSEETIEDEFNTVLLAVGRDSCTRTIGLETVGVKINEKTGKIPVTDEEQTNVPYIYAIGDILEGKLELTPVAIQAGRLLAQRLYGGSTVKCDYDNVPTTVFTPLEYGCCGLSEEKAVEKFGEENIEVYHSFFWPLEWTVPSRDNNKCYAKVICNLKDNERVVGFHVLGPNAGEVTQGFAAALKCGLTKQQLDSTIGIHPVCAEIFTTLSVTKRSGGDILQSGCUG
T4 sequence (P08069 31-1367): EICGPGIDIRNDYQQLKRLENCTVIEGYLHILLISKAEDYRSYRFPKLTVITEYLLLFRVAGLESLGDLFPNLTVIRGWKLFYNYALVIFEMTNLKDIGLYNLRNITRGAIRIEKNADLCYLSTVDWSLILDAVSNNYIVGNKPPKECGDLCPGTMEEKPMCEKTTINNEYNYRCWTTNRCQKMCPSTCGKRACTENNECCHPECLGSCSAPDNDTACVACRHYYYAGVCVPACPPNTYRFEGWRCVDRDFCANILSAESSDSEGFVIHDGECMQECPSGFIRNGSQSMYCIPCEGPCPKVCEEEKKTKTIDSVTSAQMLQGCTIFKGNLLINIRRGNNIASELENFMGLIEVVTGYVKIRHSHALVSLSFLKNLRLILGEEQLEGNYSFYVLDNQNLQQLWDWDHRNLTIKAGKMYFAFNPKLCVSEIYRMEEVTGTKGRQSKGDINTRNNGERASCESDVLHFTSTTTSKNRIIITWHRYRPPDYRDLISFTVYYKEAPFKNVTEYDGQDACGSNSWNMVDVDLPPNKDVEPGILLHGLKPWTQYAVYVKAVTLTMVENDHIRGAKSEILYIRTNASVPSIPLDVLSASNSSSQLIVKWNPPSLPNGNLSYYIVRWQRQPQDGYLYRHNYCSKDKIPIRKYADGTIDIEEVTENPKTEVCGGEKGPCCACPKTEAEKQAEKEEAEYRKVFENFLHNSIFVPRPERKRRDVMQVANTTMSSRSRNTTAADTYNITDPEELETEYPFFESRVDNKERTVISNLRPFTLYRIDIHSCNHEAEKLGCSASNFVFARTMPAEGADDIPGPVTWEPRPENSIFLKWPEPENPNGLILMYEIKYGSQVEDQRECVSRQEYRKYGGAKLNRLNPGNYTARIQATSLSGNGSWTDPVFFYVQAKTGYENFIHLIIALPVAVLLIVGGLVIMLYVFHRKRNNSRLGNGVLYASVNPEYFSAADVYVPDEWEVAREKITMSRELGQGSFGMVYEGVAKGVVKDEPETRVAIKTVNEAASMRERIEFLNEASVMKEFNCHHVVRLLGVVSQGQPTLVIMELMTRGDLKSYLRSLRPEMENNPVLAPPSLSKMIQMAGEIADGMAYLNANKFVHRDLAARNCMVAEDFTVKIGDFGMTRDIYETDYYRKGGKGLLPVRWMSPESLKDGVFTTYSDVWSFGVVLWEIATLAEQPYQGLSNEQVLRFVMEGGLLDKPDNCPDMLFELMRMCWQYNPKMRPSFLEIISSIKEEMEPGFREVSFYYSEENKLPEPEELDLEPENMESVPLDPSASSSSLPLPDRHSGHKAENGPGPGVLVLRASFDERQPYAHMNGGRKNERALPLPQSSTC
T2 sequence (P06241 whole entry): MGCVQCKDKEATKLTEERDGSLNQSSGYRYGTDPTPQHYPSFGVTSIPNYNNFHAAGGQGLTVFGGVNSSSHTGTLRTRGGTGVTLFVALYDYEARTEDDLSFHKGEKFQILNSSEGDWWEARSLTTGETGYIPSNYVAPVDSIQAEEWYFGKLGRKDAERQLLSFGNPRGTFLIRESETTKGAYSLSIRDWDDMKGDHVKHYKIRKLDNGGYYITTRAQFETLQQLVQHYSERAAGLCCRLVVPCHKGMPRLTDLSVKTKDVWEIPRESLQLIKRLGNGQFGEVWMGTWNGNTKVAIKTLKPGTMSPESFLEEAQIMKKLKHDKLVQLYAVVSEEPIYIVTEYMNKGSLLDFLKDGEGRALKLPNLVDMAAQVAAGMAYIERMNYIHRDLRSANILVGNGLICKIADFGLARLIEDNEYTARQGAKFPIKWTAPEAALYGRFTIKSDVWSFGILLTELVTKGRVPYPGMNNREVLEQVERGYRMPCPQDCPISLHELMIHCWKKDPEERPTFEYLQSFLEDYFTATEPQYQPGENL
T1 sequence (Q08881 whole entry): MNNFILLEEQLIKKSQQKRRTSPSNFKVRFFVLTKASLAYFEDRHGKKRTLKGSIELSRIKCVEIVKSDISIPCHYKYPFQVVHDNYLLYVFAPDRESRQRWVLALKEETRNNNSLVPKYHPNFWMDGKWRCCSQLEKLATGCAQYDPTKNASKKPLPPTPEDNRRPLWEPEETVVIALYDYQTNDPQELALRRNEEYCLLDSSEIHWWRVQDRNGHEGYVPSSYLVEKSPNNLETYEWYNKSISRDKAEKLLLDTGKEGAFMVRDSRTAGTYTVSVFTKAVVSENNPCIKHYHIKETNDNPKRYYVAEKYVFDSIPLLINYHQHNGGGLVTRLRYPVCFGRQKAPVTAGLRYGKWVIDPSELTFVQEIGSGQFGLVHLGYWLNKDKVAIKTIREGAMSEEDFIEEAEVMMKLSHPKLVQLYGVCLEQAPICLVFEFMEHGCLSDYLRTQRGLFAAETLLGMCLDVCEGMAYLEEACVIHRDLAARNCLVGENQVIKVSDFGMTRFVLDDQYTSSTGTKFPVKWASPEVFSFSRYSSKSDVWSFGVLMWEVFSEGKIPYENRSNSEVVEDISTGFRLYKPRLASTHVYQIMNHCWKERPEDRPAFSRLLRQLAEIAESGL

Compound	inhibition of TrxR activity [1] [%]	% Inhibition ITK [2] [%]	% Inhibition FYN [3] [%]	% Inhibition FLT3 [4] [%]	% Inhibition IGF1R [5] [%]	% Inhibition LYN [6] [%]
CC(C)(C)OC(=O)n1ccc2c[c]([Au-][P+](c3ccccc3)(c3ccccc3)c3ccccc3)ccc21 [Compound 3, 5-{Triphenylphosphine aurate(I)}-tert-butyl1H-indole-1-carboxylate]	17	–	–	–	–	–
CC(C)(C)OC(=O)n1ccc2c[c]([Au-][P+](C3CCCCC3)(C3CCCCC3)C3CCCCC3)ccc21 [Compound 4, 5-{Tricyclohexylphosphine aurate(I)}-tert-butyl1H-indole-1-carboxylate]	–	3.1	1.2	0	4.7	0
